Data from patent US11214567B2, “Small molecule inhibitors of MYC and uses thereof” (The Regents of the University of Michigan, priority 2017, dated 2022).
Entries after “also recorded” stand apart in the source; their conditions may differ.

How the values were obtained:
MIA PaCa-2 = experiment: MTT assay (cytotoxicity), MIA PaCa-2; assay type: cell-based; details: Homo sapiens, 72 h, drug concentration causing a 50% decrease in cell population
Description: (§1) The evaluation of cytotoxicity was based on the reduction of MTT dye by viable cells to give purple formazan products, which can be measured spectrophotometrically at 540 nm. One hundred eighty microliters of cancer cells were seeded into 96-well plates at 3,500-4,000 cells/well and incubated at 37° C. overnight before the indicated treatments. After 72 h, 20 μl of MTT solution (3 mg/ml) was added and incubated again for 3 h. After removal of media and solubilization of formazan crystals in 150 μL of DMSO, the absorbance was measured at 570 nm. Percentage of cell growth inhibition was expressed as 1-[(A−B)/(C−B)]×100% (A, B and C were the absorbance values from experimental, blank and control cells, respectively).
(§2) KJA derivatives were tested by the MTT assay against five human cancer cell lines including ovarian cancer cell lines (OVCAR-8, NCI/ADR-RES and SKOV3) and pancreatic cancer cell lines (MIA PaCa-2 and Pac-1). […] It is important to note that the NCI/ADR-RES cell line shares a large number of karyotypic abnormalities with OVCAR-8 but expresses high levels of MDR1 (multidrug resistance protein 1)/P-glycoprotein (see, e.g., Xu, S.; et al., Proceedings of the National Academy of Sciences 2012, 109, 16348-16353), resulting in resistance to multiple anticancer drugs in clinical use, including paclitaxel and doxorubicin.

[1] = system: five human cancer cell lines (OVCAR-8, NCI/ADR-RES, SKOV3, MIA PaCa-2, Pac-1); experiment: MTT assay, panel of five human cancer cell lines; assay type: cell-based; details: span over the five cell lines, read-out: IC50 against five cancer cell lines
Description: as §1, §2

OVCAR8 = experiment: MTT assay (cytotoxicity), OVCAR8; assay type: cell-based; details: Homo sapiens, OVCAR-8, 72 h, drug concentration causing a 50% decrease in cell population
Description: as §1, §2

NCI/ADR-RES cells = experiment: Colony formation assay; assay type: cell-based, human; details: 24 h treatment; low concentration
Description: Colony formation assay. Colony formation assay is an in vitro cell survival assay based on the ability of a single cell to grow into a colony. This technique was also performed to confirm the activity. Briefly, cells were plated in 96-well plates at a density of 300 cells/well and allowed to attach overnight. The next day, the corresponding compounds were added and allowed to incubate for 24 h. After exposure, cells were changed the new media and cultured until colonies were formed (7-10 days). Cells were subsequently washed and stained with a solution of crystal violet for 30 min. After staining, cells were thoroughly washed with water. Colonies were imaged on the inverted fluorescence microscope and were counted using ImageJ software.

tumor = experiment: Tumor size, body weight and gross toxicity in treated mice; assay type: in vivo
From the text: Error bars indicate Mean±SEM. and *p<0.05.

NCI/ADR-RES cell line = experiment: Bru-seq, changes in transcription; assay type: cell-based, human
From the text: Furthermore, to better understand the potential mechanism of KJA03, we performed Bru-seq to examine the global changes in transcription in NCI/ADR-RES cells.

GLIPR1 = experiment: Western blotting of GLIPR1 protein levels; assay type: cell-based, human; details: NCI/ADR-RES; Western blot
NCI/ADR-RES = experiment: MTT assay (cytotoxicity), NCI/ADR-RES; assay type: cell-based, human
Description: as §1, §2

TXNIP = experiment: Western blotting of TXNIP protein levels; assay type: cell-based, human; details: NCI/ADR-RES; Western blot
Panc1 = experiment: MTT assay (cytotoxicity), Panc1; assay type: cell-based; details: Homo sapiens, PANC-1, 72 h, drug concentration causing a 50% decrease in cell population
Description: as §1, §2

SKOV3 = experiment: MTT assay (cytotoxicity), SKOV3; assay type: cell-based; details: Homo sapiens, SK-OV-3, 72 h, drug concentration causing a 50% decrease in cell population
Description: as §1, §2

Cc1ccc(-c2noc(-c3ccccc3-n3c(-c4ccc(C)cc4)noc3=O)n2)cc1 [KJA03, 3-(P-tolyl)-4-(2-(3-(p-tolyl)-1,2,4-oxadiazol-5-yl)phenyl)-1,2,4-oxadiazol-5(4H)-one]
IC50 (MIA PaCa-2): 130 nM
IC50 [1]: 130 to 310 nM
IC50 (OVCAR8): 140 ± 50 nM
colony formation in NCI/ADR-RES (NCI/ADR-RES cells): significantly inhibited colony formation
tumor sizes (tumor; mice, 10 mg/kg, *p<0.05): tumor sizes were reduced
gross toxicity such as weakness, weight loss or lethargy (tumor; mouse, in vivo): no symptoms of gross toxicity
expression of LAMC2, TAGLN, CSRP1, SLC4A4, LAMB3, and LPP genes (NCI/ADR-RES cell line): significantly increase
Fold-Change ACTC1 (NCI/ADR-RES cell line; NCI/ADR-RES, 0.4 uM, 4 hours): 2.238 fold
Fold-Change APOBEC3 (NCI/ADR-RES cell line; NCI/ADR-RES, 0.4 uM, 4 hours): 0.309 fold
Fold-Change ARMCX1 (NCI/ADR-RES cell line; NCI/ADR-RES, 0.4 uM, 4 hours): 0.417 fold
Fold-Change ATP5I (NCI/ADR-RES cell line; NCI/ADR-RES, 0.4 uM, 4 hours): 0.496 fold
Fold-Change AURKAIP1 (NCI/ADR-RES cell line; NCI/ADR-RES, 0.4 uM, 4 hours): 0.413 fold
Fold-Change BHLHE40 (NCI/ADR-RES cell line; NCI/ADR-RES, 0.4 uM, 4 hours): 2.683 fold
Fold-Change C19orf33 (NCI/ADR-RES cell line; NCI/ADR-RES, 0.4 uM, 4 hours): 0.378 fold
Fold-Change CNO (NCI/ADR-RES cell line; NCI/ADR-RES, 0.4 uM, 4 hours): 0.395 fold
Fold-Change CSRP1 (NCI/ADR-RES cell line; NCI/ADR-RES, 0.4 uM, 4 hours): 2.335 fold
Fold-Change EGR1 (NCI/ADR-RES cell line; NCI/ADR-RES, 0.4 uM, 4 hours): 0.198 fold
Fold-Change EXOSC4 (NCI/ADR-RES cell line; NCI/ADR-RES, 0.4 uM, 4 hours): 0.493 fold
Fold-Change FJX1 (NCI/ADR-RES cell line; NCI/ADR-RES, 0.4 uM, 4 hours): 0.469 fold
Fold-Change GALNT4 (NCI/ADR-RES cell line; NCI/ADR-RES, 0.4 uM, 4 hours): 0.356 fold
Fold-Change GLIPR1 (NCI/ADR-RES cell line; NCI/ADR-RES, 0.4 uM, 4 hours): 2.574 fold
Fold-Change HIST1H2A1 (NCI/ADR-RES cell line; NCI/ADR-RES, 0.4 uM, 4 hours): 0.483 fold
Fold-Change HIST1H2AB (NCI/ADR-RES cell line; NCI/ADR-RES, 0.4 uM, 4 hours): 0.362 fold
Fold-Change HIST1H2AE (NCI/ADR-RES cell line; NCI/ADR-RES, 0.4 uM, 4 hours): 0.471 fold
Fold-Change HIST1H2AG (NCI/ADR-RES cell line; NCI/ADR-RES, 0.4 uM, 4 hours): 0.45 fold
Fold-Change HIST1H2BL (NCI/ADR-RES cell line; NCI/ADR-RES, 0.4 uM, 4 hours): 0.441 fold
Fold-Change HIST1H2BM (NCI/ADR-RES cell line; NCI/ADR-RES, 0.4 uM, 4 hours): 0.193 fold
Fold-Change HIST1H2BN (NCI/ADR-RES cell line; NCI/ADR-RES, 0.4 uM, 4 hours): 0.378 fold
Fold-Change HIST1H3B (NCI/ADR-RES cell line; NCI/ADR-RES, 0.4 uM, 4 hours): 0.432 fold
Fold-Change HIST1H3F (NCI/ADR-RES cell line; NCI/ADR-RES, 0.4 uM, 4 hours): 0.322 fold
Fold-Change HIST1H3G (NCI/ADR-RES cell line; NCI/ADR-RES, 0.4 uM, 4 hours): 0.496 fold
Fold-Change HIST1H3H (NCI/ADR-RES cell line; NCI/ADR-RES, 0.4 uM, 4 hours): 0.136 fold
Fold-Change HIST1H4C (NCI/ADR-RES cell line; NCI/ADR-RES, 0.4 uM, 4 hours): 0.338 fold
Fold-Change HIST1H4H (NCI/ADR-RES cell line; NCI/ADR-RES, 0.4 uM, 4 hours): 0.324 fold
Fold-Change HIST1H4L (NCI/ADR-RES cell line; NCI/ADR-RES, 0.4 uM, 4 hours): 0.416 fold
Fold-Change HIST2H2AC (NCI/ADR-RES cell line; NCI/ADR-RES, 0.4 uM, 4 hours): 0.29 fold
Fold-Change HIST3H2BB (NCI/ADR-RES cell line; NCI/ADR-RES, 0.4 uM, 4 hours): 0.446 fold
Fold-Change HIST4H4 (NCI/ADR-RES cell line; NCI/ADR-RES, 0.4 uM, 4 hours): 0.483 fold
Fold-Change HOXA1 (NCI/ADR-RES cell line; NCI/ADR-RES, 0.4 uM, 4 hours): 0.491 fold
Fold-Change HOXC (NCI/ADR-RES cell line; NCI/ADR-RES, 0.4 uM, 4 hours): 0.477 fold
Fold-Change HOXC4 (NCI/ADR-RES cell line; NCI/ADR-RES, 0.4 uM, 4 hours): 0.4 fold
Fold-Change HSD17B10 (NCI/ADR-RES cell line; NCI/ADR-RES, 0.4 uM, 4 hours): 0.415 fold
Fold-Change ILE (NCI/ADR-RES cell line; NCI/ADR-RES, 0.4 uM, 4 hours): 2.485 fold
Fold-Change INGX (NCI/ADR-RES cell line; NCI/ADR-RES, 0.4 uM, 4 hours): 3.089 fold
Fold-Change LAMB3 (NCI/ADR-RES cell line; NCI/ADR-RES, 0.4 uM, 4 hours): 2.089 fold
Fold-Change LAMC2 (NCI/ADR-RES cell line; NCI/ADR-RES, 0.4 uM, 4 hours): 3.217 fold
Fold-Change LINC00312 (NCI/ADR-RES cell line; NCI/ADR-RES, 0.4 uM, 4 hours): 2.165 fold
Fold-Change LINC00493 (NCI/ADR-RES cell line; NCI/ADR-RES, 0.4 uM, 4 hours): 0.452 fold
Fold-Change LOC100630918 (NCI/ADR-RES cell line; NCI/ADR-RES, 0.4 uM, 4 hours): 0.494 fold
Fold-Change LPP (NCI/ADR-RES cell line; NCI/ADR-RES, 0.4 uM, 4 hours): 2.032 fold
Fold-Change LSMD1 (NCI/ADR-RES cell line; NCI/ADR-RES, 0.4 uM, 4 hours): 2.261 fold
Fold-Change MRPL34 (NCI/ADR-RES cell line; NCI/ADR-RES, 0.4 uM, 4 hours): 0.416 fold
Fold-Change MRPL41 (NCI/ADR-RES cell line; NCI/ADR-RES, 0.4 uM, 4 hours): 0.496 fold
Fold-Change MRPS26 (NCI/ADR-RES cell line; NCI/ADR-RES, 0.4 uM, 4 hours): 0.432 fold
Fold-Change MYADM (NCI/ADR-RES cell line; NCI/ADR-RES, 0.4 uM, 4 hours): 2.114 fold
Fold-Change PA2G4P4 (NCI/ADR-RES cell line; NCI/ADR-RES, 0.4 uM, 4 hours): 0.463 fold
Fold-Change RPL23AP32 (NCI/ADR-RES cell line; NCI/ADR-RES, 0.4 uM, 4 hours): 2.141 fold
Fold-Change RPS19BP1 (NCI/ADR-RES cell line; NCI/ADR-RES, 0.4 uM, 4 hours): 0.49 fold
Fold-Change SCARNA2 (NCI/ADR-RES cell line; NCI/ADR-RES, 0.4 uM, 4 hours): 0.401 fold
Fold-Change SCARNA10 (NCI/ADR-RES cell line; NCI/ADR-RES, 0.4 uM, 4 hours): 0.487 fold
Fold-Change SCARNA17 (NCI/ADR-RES cell line; NCI/ADR-RES, 0.4 uM, 4 hours): 0.496 fold
Fold-Change SDPR (NCI/ADR-RES cell line; NCI/ADR-RES, 0.4 uM, 4 hours): 0.497 fold
Fold-Change SFTA1P (NCI/ADR-RES cell line; NCI/ADR-RES, 0.4 uM, 4 hours): 0.387 fold
Fold-Change SLC4A4 (NCI/ADR-RES cell line; NCI/ADR-RES, 0.4 uM, 4 hours): 2.18 fold
Fold-Change SNRNP25 (NCI/ADR-RES cell line; NCI/ADR-RES, 0.4 uM, 4 hours): 0.463 fold
Fold-Change SSSCA1 (NCI/ADR-RES cell line; NCI/ADR-RES, 0.4 uM, 4 hours): 0.386 fold
Fold-Change TAGLN (NCI/ADR-RES cell line; NCI/ADR-RES, 0.4 uM, 4 hours): 2.648 fold
Fold-Change TCEAL1 (NCI/ADR-RES cell line; NCI/ADR-RES, 0.4 uM, 4 hours): 0.455 fold
Fold-Change TMEM133 (NCI/ADR-RES cell line; NCI/ADR-RES, 0.4 uM, 4 hours): 2.846 fold
Fold-Change TNFAIP3 (NCI/ADR-RES cell line; NCI/ADR-RES, 0.4 uM, 4 hours): 2.192 fold
Fold-Change TPBG (NCI/ADR-RES cell line; NCI/ADR-RES, 0.4 uM, 4 hours): 0.374 fold
Fold-Change TUBB2B (NCI/ADR-RES cell line; NCI/ADR-RES, 0.4 uM, 4 hours): 0.461 fold
Fold-Change TWIST1 (NCI/ADR-RES cell line; NCI/ADR-RES, 0.4 uM, 4 hours): 0.319 fold
Fold-Change TXNIP (NCI/ADR-RES cell line; NCI/ADR-RES, 0.4 uM, 4 hours): 0.281 fold
GLIPR1 protein levels (GLIPR1): gradually upregulated; also recorded: up-regulated
IC50 (NCI/ADR-RES; Homo sapiens, NCI/ADR-RES, MTT, 72 h, drug concentration causing a 50% decrease in cell population): 200 ± 60 nM
growth of NCI/ADR-RES (NCI/ADR-RES; MTT assay after 72 h treatment): inhibited growth
TXNIP protein levels (TXNIP): downregulated; also recorded: down-regulated dose-dependently
IC50 (Panc1): 170 nM
IC50 (SKOV3): 310 ± 160 nM
